Here are results for one compound from patent US12435091B2, “RNA-binding protein multimerization inhibitors and methods of use thereof” (THE UAB RESEARCH FOUNDATION, priority 2020, dated 2025).

For orientation: IC50 means the concentration at which inhibition is half-maximal.

Where two headings read alike, the source gives them in different places.

Data set [1] deals with PDGx neurosphere cell lines (JX12p, X14P, XD456, X1524, and JX22p). Briefly: RNA-Seq analysis and gene ontology enrichment across all PDGx neurosphere cell lines. The note with it: 3 uM for 12 hours, in four of five neurosphere cell lines. It is filed as cell-based. The procedure:
Illumina global RNA-sequencing data were generated by utilizing PDGx neurospheres, which have been treated with a compound as described herein (e.g., SRI-42127, 3 uM) for 12 hours or with vehicle as the control. RNA was isolated by using TRIzol reagent (Invitrogen; Carlsbad, CA). The RNA samples were processed.
The RNA-Sequencing data was generated using glioma neurospheres representing the different molecular subtypes (classical, neuronal, and mesenchymal) in the control (treatment with vehicle) and after treatment with SRI-42127, 3 uM for 12 hours. First, analysis of direct HuR mRNA targets and their corresponding cell signaling pathways was performed by using gene sets, which have been defined as the direct HuR targets following tumor neurosphere treatment with DHTS compound, an established modulator of the HuR/mRNA interaction.
Significant down-regulation of the pathways responsible for i) cell cycle progression, ii) DNA replication, iii) transport mature transcript to cytoplasm, iv) DNA strand elongation, v) capped intron-containing pre-mRNA processing, vi) DNA repair, vii) unwinding of DNA, viii) alpha-linolenic (omega 3) and linoleic (omega 6) metabolism, ix) chromosome maintenance, x) messenger RNA splicing was observed. It is established that HuR can control the centrosome and microtubule organizing center in cancer cells. […]

A further data set concerns the target AAK1 (Homo sapiens, UniProt Q2M2I8). Briefly: SelectScreen kinase profiling, LanthaScreen Binding. Here is the method:
The kinase inhibitory potentials of compounds as described herein (e.g., SRI-42127 and SRI-41664) were evaluated by ThermoFisher Scientific's SelectScreen™ Kinase Profiling Service. The following kinase inhibitory assays were utilized: ZLYTE (Madison, WI) for NTRK1, PIM1, and cMET kinases; LanthaScreen Binding (Madison, WI) for AAK1 kinase; and Adapta (Madison, WI) for IRAK1 kinase.
On the technique in general: Time-resolved FRET reads energy transfer from a long-lived donor to a nearby acceptor.

Data set [2] concerns PDGx XD456 glioma cell line. The data set is described as follows: PrestoBlue cell viability assay. It is filed as cell-based. Here is the method:
(§1) PrestoBlue cell viability reagent (ThermoFisher Scientific; Waltham, MA) was used for cell viability assays. The inhibitory dose-response data were normalized to the control (treatment with vehicle); the inhibitory dose-response curves, which were fitted by using Boltzmann equation, and the corresponding IC50s were generated by using OriginPro software (OriginLab Corporation, CA).
(§2) The glioma suppressive potentials of the new class of HuR multimerization inhibitors were evaluated by utilizing SRI-41664 and SRI-42127 compounds in several cell-based assays. First, it was confirmed that the SRI-41664 and SRI-42127 compounds are cytotoxic for established and PDGx cell lines. FIG. 5A illustrates the inhibitory dose responses of SRI-41664 and SRI-42127 compounds in the established U251, LN229, and the PDGx XD456 glioma cell lines. […] An HuR-overexpression approach was employed to confirm SRI-42127 inhibitory potency against HuR dimerization.

The subject of a further data set is U251 glioma cell line. Briefly: PrestoBlue cell viability assay. Conditions: Homo sapiens, U-251, 48 h. It is filed as cell-based. The procedure: as §1, §2
The next data set deals with LN229 glioma cell line. Briefly: PrestoBlue cell viability assay. Conditions: Homo sapiens, LN-229; LN229, 48 hours of treatment. It is filed as cell-based. The procedure: as §1, §2
The next data set concerns U251 cell line. Briefly: soft agar colony formation assay. In kind it is cell-based. The note with it: 3 uM. Here is the method:
(§3) The soft agar colony formation assay was performed by using 0.9% and 0.45% agarose for the bottom and the top layers, respectively; cells were incorporated in the top layer. Seaplaque low-melting temperature agarose was purchased from Lonza (Rockland, ME). Five hundred cells per well were utilized in both, the soft agar and the attached colony formation assays, which were performed in 6 well plates; cells were treated with vehicle as the control or with the desired drugs, which were administered twice per week for three weeks. The Crystal violet solution (0.1%) was utilized for colony staining in both assays. The colonies were counted after three weeks of treatment; the plate images were obtained by using Amersham Imager-600 reader (Piscataway, NJ).
(§4) Graphs in FIG. 8D illustrate the average numbers of colonies formed by established U251 and PDGx XD456 cell lines in the attached cell colony formation assay and in the soft agar colony formation assay, which represents anchorage independent cell growth.

A further data set concerns XD456 cell line. The data set is described as follows: soft agar colony formation assay. It is filed as cell-based. The note with it: 3 uM. The procedure:
as §3, §4

Data set [3] can be described thus: Mouse liver microsomal stability in vitro. It is filed as in vitro ADME. Conditions: liver microsomes, read-out: MLM t1/2. (In general: Liver microsomes are vesicles of endoplasmic reticulum, rich in cytochrome P450 enzymes.)
Description: Selected compounds were assessed for their aqueous solubility, Log D and mouse and human liver microsomal stability.
The subject of data set [4] is secreted proteins of astrocytes. Briefly: ELISA of secreted proteins in culture media of LPS-stimulated astrocytes. It is filed as cell-based. The procedure:
Next, the impact of SRI-42127 on induction of inflammatory cytokine mRNAs as depicted in FIG. 15, Panel B was assessed. A significant 3-4-fold suppression of mRNA for IL-1β, IL-6, CXCL1, and CCL2 was observed. […] All chemokines were likewise suppressed, including KC, CCL2, CCL3, CCL4, CXCL10, from 2.5 to 8.1-fold.
A general note: An ELISA detects its analyte on a solid surface through an enzyme-linked reagent.

The subject of data set [5] is microglial lysates (iNOS, HuR, KSRP, Arginase 1, YM1). Briefly: Western blot analysis of microglial lysates. It is filed as cell-based, mouse. The note with it: 1.0 μM.

AAK1, sequence (Q2M2I8 whole entry): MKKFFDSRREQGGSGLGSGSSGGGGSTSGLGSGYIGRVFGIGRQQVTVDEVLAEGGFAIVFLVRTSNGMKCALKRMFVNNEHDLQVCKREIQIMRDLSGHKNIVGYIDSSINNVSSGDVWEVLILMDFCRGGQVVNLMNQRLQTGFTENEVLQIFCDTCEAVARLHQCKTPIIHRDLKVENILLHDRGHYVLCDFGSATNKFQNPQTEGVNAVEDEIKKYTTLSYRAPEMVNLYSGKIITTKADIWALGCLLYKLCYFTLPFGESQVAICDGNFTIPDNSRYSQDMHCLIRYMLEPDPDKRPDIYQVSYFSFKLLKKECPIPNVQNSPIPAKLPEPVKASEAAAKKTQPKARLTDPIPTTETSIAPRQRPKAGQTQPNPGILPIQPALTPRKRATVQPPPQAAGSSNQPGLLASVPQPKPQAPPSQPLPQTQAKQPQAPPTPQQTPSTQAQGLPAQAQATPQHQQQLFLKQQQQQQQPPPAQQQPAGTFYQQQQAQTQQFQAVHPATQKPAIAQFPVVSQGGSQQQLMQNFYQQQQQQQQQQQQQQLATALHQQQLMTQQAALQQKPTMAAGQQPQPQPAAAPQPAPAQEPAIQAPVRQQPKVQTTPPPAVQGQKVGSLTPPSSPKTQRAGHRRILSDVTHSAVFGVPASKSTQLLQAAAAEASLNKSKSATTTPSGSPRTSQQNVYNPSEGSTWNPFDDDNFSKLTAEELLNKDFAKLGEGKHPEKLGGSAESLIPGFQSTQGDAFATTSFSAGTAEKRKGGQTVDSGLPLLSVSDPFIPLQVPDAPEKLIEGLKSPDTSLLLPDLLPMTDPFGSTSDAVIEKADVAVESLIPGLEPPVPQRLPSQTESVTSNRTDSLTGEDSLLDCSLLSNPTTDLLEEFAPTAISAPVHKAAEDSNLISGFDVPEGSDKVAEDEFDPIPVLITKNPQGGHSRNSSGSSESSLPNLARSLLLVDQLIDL

As for `CN(c1ccc2ncc(-c3ccc4cn[nH]c4c3)n2n1)C1CCOCC1` [Compound 19], in data set [1], the “up-regulation of Tubb2A transcript” value is listed as “more than 2 folds”. For the same compound, the IC50 on AAK1 stood at 120 nM; in data set [2] (Glioma cell, XD456, 48 hours of treatment), 4000 ± 600 nM; in the data set on U251 glioma cell line (U251, 48 hours of treatment, read-out: IC50 cell viability), 2800 ± 600 nM; in the data set with U251 glioma cell line (U251 with dox-inducible HuR-dimerization reporters, after enhancement of HuR-dimer formation by two fold, 48 hours, read-out: IC50 for inhibition of cell viability) it was 8000 ± 800 nM; with U251 glioma cell line (U251 with dox-inducible HuR-dimerization reporters, before enhancement of HuR-dimer formation, 48 hours, read-out: IC50 for inhibition of cell viability), 2800 ± 400 nM; in the data set with LN229 glioma cell line, 3200 ± 600 nM. In addition, in data set [2] (XD456, enhancement of HuR-dimer formation approximately by two-fold, 48 hours), the “increase of IC50 for inhibition of cell viability” value is on record as 1.9±0.2 fold. Also, the number of colonies with U251 cell line is 90+70; in the data set with XD456 cell line, 39+6. The half-life in [3] was determined as 3.3 min. Besides, the “suppression of secreted chemokines KC, CCL2, CCL3, CCL4, CXCL10” value in [4] is listed as 2.5 to 8.1 fold. Also, the “suppression of secreted IL-6” value in [4] (1.0 μM) was found to be 8.8 fold. Also, in data set [4] (1.0 μM), the “suppression of secreted TNF-α” value was 5.7 fold. Besides, the “suppression of iNOS protein” value in data set [5] is 4.2 fold.
